From PubChem BioAssay (NCI)
“And” between values parts separate entries of the source, which are not always exact repeats. Equal entries are not always repeated.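 Method: 48-hour compound exposure of cells in 96-well plates, five concentrations, linear interpolation of endpoints. GI50 = concentration required for 50% inhibition of growth. TGI is the concentration that stops growth completely.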

Tests used:
Assay in all cases: NCI tumour cell line growth inhibition, 48 h
[1] = system: HOP-62 NSCLC
[2] = system: MALME-3M melanoma
[3] = system: MDA-MB-231 breast
[4] = system: NCI-H226 lung
[5] = system: NCI/ADR-RES ovarian
[6] = system: OVCAR-4 ovarian
[7] = system: OVCAR-5 ovarian
[8] = system: OVCAR-8 ovarian
[9] = system: RPMI-8226 leukemia
[10] = system: SK-MEL-2 melanoma
[11] = system: U251 CNS
[12] = system: UACC-62 melanoma
[13] = system: HL-60(TB) leukemia

Row | Compound | TGI [1] | TGI [2] | TGI [3] | TGI [4] | TGI [5] | TGI [6] | TGI [7] | TGI [8] | TGI [9] | TGI [10] | TGI [11] | TGI [12] | TGI [13] | GI50 [13] | GI50 [2] | GI50 [4] | GI50 [7] | GI50 [9] | GI50 [11]
1 | CN(C)/C=C/c1ccncc1 | > 100 µM | > 100 µM | > 100 µM | > 100 µM | > 100 µM | > 100 µM | > 100 µM | > 100 µM | > 100 µM | > 100 µM | > 100 µM | > 100 µM |  |  |  |  |  |  | 
2 | [O-]c1c[n+](CC[n+]2cc([O-])on2)no1 | > 100 µM | > 100 µM | > 100 µM |  | > 100 µM | > 100 µM | > 100 µM | > 100 µM | > 100 µM | > 100 µM | > 100 µM | > 100 µM | > 100 µM |  |  |  |  |  | 
3 | Cc1c(F)c(N)c2c(=O)cc(-c3ccc(NC(=O)[C@@H](N)CCCCN)c(F)c3)oc2c1F | 27.3 µM and 24 µM | 44.2 µM and 33.6 µM | 33.1 µM and 30.8 µM | 15 µM | 51.9 µM and 78.7 µM | 32.7 µM and 26.7 µM | 25.2 µM and 21.9 µM | 33 µM and 24.6 µM | 32.6 µM and 22.3 µM | 34.6 µM and 47.1 µM | 21.9 µM and 15.1 µM |  | 29.3 µM and 30.4 µM | 11.2 µM and 2.41 µM | 23.6 µM and 10 µM | 0.0446 µM | 0.947 µM and 0.249 µM | 3.48 µM and 0.936 µM | 2.96 µM and 0.842 µM
4 | CN(C)/C=C/c1nnnn1-c1ccc(I)cc1 | > 100 µM | 44.7 µM | 40.9 µM | 56.9 µM | 63.5 µM | 66 µM | 56.4 µM | 72.2 µM | 46.5 µM |  | 34.9 µM | 31.1 µM | 25.7 µM |  |  |  |  |  | 
5 | COc1cc(-c2oc(C=Nc3ccccc3)c([N+](=O)[O-])c2-c2ccc(O)c(OC)c2)ccc1O | > 100 µM |  | > 95.7 µM | > 100 µM | > 68.1 µM | 67.8 µM | > 89.6 µM | > 54.9 µM | 72.4 µM | > 100 µM | 66.1 µM | 47.2 µM | 4.28 µM |  |  |  |  |  | 
6 | COc1ccc2nc3ccc(OC)cc3c(SCC3CO3)c2c1 (stereo not drawn) | > 100 µM | 30.5 µM | 28.7 µM | > 100 µM | 38.5 µM | 38.1 µM | 69.3 µM | 25.7 µM | 74.6 µM | 28.4 µM | 27.1 µM |  |  |  |  |  |  |  | 
7 | CCN(CC)CCC(=O)c1ccc(Oc2ccccc2)cc1 | 77.4 µM | 30.1 µM | 36.7 µM | > 100 µM | 56.4 µM | 76.9 µM | 46.4 µM | > 100 µM | 39.2 µM | > 100 µM | 32.3 µM | 29.3 µM |  |  |  |  |  |  | 
8 | C/C(=N/NC(=S)NCCc1ccccn1)c1cnccn1 | > 100 µM | > 100 µM | > 100 µM |  |  | > 100 µM | > 100 µM |  | 80 µM | > 100 µM | > 100 µM | 64.1 µM |  |  |  |  |  |  | 
9 | [C-]#[N+]C1(C(=O)OCC)CC1 | > 100 µM | > 100 µM |  | > 100 µM | > 100 µM | > 100 µM | > 100 µM | > 100 µM | > 100 µM |  | > 100 µM | > 100 µM | > 100 µM |  |  |  |  |  | 
10 | COc1cc(C2(O)c3ccccc3C3=NCCN32)cc(OC)c1OC (stereo not drawn) | > 100 µM |  | > 100 µM | > 100 µM | > 100 µM | > 100 µM |  |  | > 100 µM | > 100 µM | > 100 µM | > 100 µM | > 100 µM |  |  |  |  |  | 
11 | O=C1c2ccccc2-c2c1c(-c1ccccc1)c1n2C2(C(=O)c3ccccc3C2=O)C2C(=O)N(c3ccccc3)C(=O)C12 (stereo not drawn) | 63.7 µM | 51.9 µM |  | 43.5 µM | > 100 µM | > 100 µM | > 100 µM | > 100 µM |  | 51.4 µM | > 100 µM | 49 µM |  |  |  |  |  |  | 
12 | CC[N+]1(C)CCC(O)(/C=C/c2ccc(Cl)cc2)C(C(=O)/C=C/c2ccc(Cl)cc2)C1 (stereo not drawn) | 39.3 µM | 24.3 µM | > 31.5 µM |  | 39.7 µM | > 67.2 µM | > 53.7 µM | 51 µM |  | 39 µM | 20.8 µM | 37.4 µM | 4.87 µM |  |  |  |  |  | 
13 | O=Cc1ccc(-c2cccc([N+](=O)[O-])c2)s1 | > 100 µM |  | > 100 µM | > 100 µM | > 100 µM | > 100 µM | > 100 µM | > 100 µM | > 100 µM | > 100 µM | > 100 µM | > 100 µM | > 100 µM |  |  |  |  |  | 
14 | O=C(CC(C(=O)c1cccs1)c1ccsc1)c1ccco1 (stereo not drawn) | > 100 µM |  |  | > 100 µM | 43.6 µM |  | > 100 µM | > 100 µM | > 100 µM |  | 49.6 µM | 62.1 µM | 41.3 µM |  |  |  |  |  | 
15 | Clc1ccccc1-c1nnc2c(-c3ccccc3)nc3ccccc3n12 | > 100 µM | > 100 µM | > 100 µM | > 100 µM | > 100 µM | > 100 µM | > 100 µM |  | > 100 µM | > 100 µM | > 100 µM | > 100 µM | > 100 µM |  |  |  |  |  | 
16 | O=C1NC(=NC2CCCCC2)C2(CCN(CCCC3(c4ccc(F)cc4)OCCO3)CC2)N1c1ccccc1 | 31.8 µM | 30.5 µM |  | 44.3 µM | 66.8 µM | 50.2 µM | 30.7 µM | 64.9 µM | 64.5 µM | 30.2 µM | 30.2 µM |  | 28.7 µM |  |  |  |  |  | 
17 | O=S1c2ccccc2SCSc2ccccc21 | > 100 µM | > 100 µM | > 100 µM |  | > 100 µM | > 100 µM | > 100 µM | > 100 µM | 70.1 µM | > 100 µM | > 100 µM | > 100 µM |  |  |  |  |  |  | 
18 | CC(C)(C)c1cc(C(=O)/C=C/c2ccc3c(c2)CCO3)cc(C(C)(C)C)c1O | > 93.7 µM | > 100 µM | 6.54 µM | > 28.4 µM | 1.05 µM |  | > 27.6 µM | > 100 µM | 4.45 µM | 13.1 µM | 3.17 µM | 29.6 µM | 5.53 µM |  |  |  |  |  | 
19 | Nc1cccc(C#Cc2cccc(C#Cc3cccc(N)n3)n2)n1 | > 100 µM |  | > 100 µM | > 100 µM | > 100 µM | > 100 µM | > 100 µM | > 100 µM | > 100 µM | > 100 µM | > 100 µM | > 100 µM |  |  |  |  |  |  | 
